Assay [1] deals with NQO1 deficient and C57BL/6 mice. Briefly: elastase (PPE) model of emphysema with oral NAC. The class given is in vivo, mouse. The text has this: (§1) C57BL/6J mice were purchased from Jackson Laboratories (Bar Harbor, Me.) to be used as controls. A breeding colony was established at Duke University from breeding pairs of NQO1 deficient mice (backcrossed 16 generations on a C57BL/6 background) that were generously provided by Dr. Frank Gonzalez at the National Cancer Institute (Bethesda, Md.) (Radjendirane et al. J. Biol. Chem. 1998; 273:7382-7389). Male C57BL/6 or NQO1 deficient mice were used at one, two, four and six months of age. Experimental protocols were approved by the Institutional Animal Care and Use Committee at Duke University Medical Center and were performed in accordance with the standards established by the U.S. Animal Welfare Act.
At two months of age, WT and NQO1 deficient mice were treated with porcine pancreatic elastase (PPE, Sigma Aldrich, St. Louis Mo.) or saline by oropharyngeal aspiration. Briefly, immediately after inhalational anesthesia with 3% isoflurane (IsoFlo from Abbott Laboratories and Open-Circuit Gas Anesthesia System from Stoelting), animals were suspended by their upper incisors on a 60° incline board, and a liquid volume of PPE [25 μg/50 μL saline] or saline alone was delivered by oropharyngeal aspiration. Thirteen days post, the mice were phenotyped by flexiVent for pulmonary mechanics and lavage to collect bronchoalveolar lavage fluid (Foster et al. J Appl Physiol 2001; 90:1111-1117).
(§2) N-acetyl cysteine (Sigma Aldrich, St. Louis Mo.) was dissolved in the mouse water at a concentration of 2 mg/mL (March et al. Toxicol. Sci. 2006; 92:545-559). The water was changed every two days to prevent oxidation of the NAC. Mice were given NAC in their water for one week before LPS/Saline or PPE/Saline treatment and remained on the NAC water until phenotyping.
(§3) For the mice that underwent pulmonary function tests, the procedure required approximately five minutes per mouse from the point at which the mouse was administered anesthetic and prepared for surgery until the conclusion of pulmonary function measurements and euthanasia. Mice were anesthetized (60 mg/kg Nembutal) and surgically prepared with a tracheal cannula and then placed on a computer-controlled ventilator (flexiVent, SCIREQ, Montreal, Canada) at a constant tidal volume of 7.5 mL/kg and a […] of 3 cm H2O. The animals were then given a neuromuscular blockade (0.8 mg/kg Pancuronium Bromide, Sigma-Aldrich) and given three minutes to adjust to the ventilator. Pressure-volume curves were generated by slow stepwise (ramp) inflation to total lung capacity and deflation back to […] residual capacity (Lovgren et al. Am. J. Physiol. 2006; 291:L144-156). The static compliance measurements were calculated from the pressure volume curves ([…]).
(§4) Alveolar surface density (ASD) was calculated as previously described (Auten et al. Am. J. Physiol. 2001; 281:L336-344). Briefly, ten digital images of parenchymal architecture from each mouse were captured at 40× magnification were chosen (omitting large vascular and bronchiolar structures) from 5 μm thick sections of paraffin embedded, formalin-fixed mouse lung that were stained with hematoxylin and eosin (H&E stain, AML Laboratories, Rosedale, Md.). Five random fields were chosen (omitting large vascular and bronchiolar structures) and images were overlaid with an 11°-11 point grid (Metamorph; Universal Imaging, West Chester, Pa.) for point (P) and intercept (I) counting of the alveolar septa. Alveolar volume density was calculated from Palveoli/Pparenchyma and alveolar surface density from 2Ialveoli/LT, where LT was the test line length within the lung parenchyma.

Assay [2] shares this test system. Briefly: LPS-induced murine emphysema with oral NAC. The class given is in vivo, mouse.
Excerpt: as §1
LPS (Sigma Aldrich, St Louis Mo.) was reconstituted with sterile saline and added for a dose of 5 μg/m^3. At one month of age, mice were placed in stainless steel wire cage exposure racks in a 20-L plexiglass chamber and exposed to aerosolized LPS for 2.5 hours. LPS solution was aerosolized with a 6-jet atomizer (TSI) with all output directed to the exposure chamber. Filtered air was supplied to the atomizer at 30-psi gauge pressure (Brass et al. Am. J. Resp. Cell. Mol. 2008; 39:584-590). Mice were then returned to their cages. The mice were exposed every other day for a total of three exposures and then given four weeks to recover.
as §2, §3
as §4, with “Five random fields were chosen (omitting large vascular and bronchiolar structures) and images were overlaid with an 11°-11 point grid (Metamorph; Universal Imaging, West Chester, Pa.) for point (P) and intercept (I) counting of the alveolar septa.” left out, “parenchyma. […]” for “parenchyma.”

The subject of assay [3] is human DNA Topoisomerase II. To be noted: cited from earlier work.
The target of assay [4] is T1, human DNA Topoisomerase I (Homo sapiens, UniProt P11387).
T1 sequence (P11387 1-765): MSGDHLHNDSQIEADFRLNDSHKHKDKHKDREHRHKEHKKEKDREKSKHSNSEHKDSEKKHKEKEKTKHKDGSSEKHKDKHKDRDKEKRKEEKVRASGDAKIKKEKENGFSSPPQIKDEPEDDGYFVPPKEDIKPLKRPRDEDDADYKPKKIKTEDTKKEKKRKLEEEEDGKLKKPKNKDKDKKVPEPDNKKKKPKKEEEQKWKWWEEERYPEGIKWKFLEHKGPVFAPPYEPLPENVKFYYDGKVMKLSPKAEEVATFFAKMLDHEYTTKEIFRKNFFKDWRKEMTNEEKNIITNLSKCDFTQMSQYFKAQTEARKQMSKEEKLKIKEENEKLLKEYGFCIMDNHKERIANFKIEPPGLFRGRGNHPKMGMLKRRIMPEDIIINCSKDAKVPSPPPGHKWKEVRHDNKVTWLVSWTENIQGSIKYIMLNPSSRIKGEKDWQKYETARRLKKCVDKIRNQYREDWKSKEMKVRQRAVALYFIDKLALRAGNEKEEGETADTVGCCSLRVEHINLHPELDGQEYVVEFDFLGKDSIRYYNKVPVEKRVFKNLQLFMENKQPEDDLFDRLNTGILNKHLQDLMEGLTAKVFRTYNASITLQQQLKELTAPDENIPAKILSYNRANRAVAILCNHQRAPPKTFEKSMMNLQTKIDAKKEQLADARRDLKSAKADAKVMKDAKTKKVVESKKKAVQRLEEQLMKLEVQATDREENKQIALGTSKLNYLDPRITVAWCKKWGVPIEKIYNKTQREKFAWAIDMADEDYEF
The following applies: cited from earlier work.

For assay [5], the system named is mouse alveolar macrophage cell line (MHS cells). Briefly: oxidative stress in macrophage cell line after NQO1 inhibitor or inducer pretreatment and LPS or PMA challenge. The class given is cell-based. The following applies: pretreated 4 hours (100 nM MAC220 or 5-10 μM β-lapachone), then PMA or LPS 2 hours, supernatant.
Protocol: Murine alveolar macrophage cell line (MH-S cell) purchased from ATCC (Manassas, Va.) was used for in vitro NQO1 blocking and inducing assays. Cells were cultured in RPMI1640 medium supplemented with 10% heat-inactivated fetal bovine serum, 2 mM L-glutamine, penicillin (100 U/ml), streptomycin (100 μg/ml), and 10 mM HEPES. To determine the role of NQO1 in macrophage response to LPS or PMA, cells at 80-90% confluence were pretreated with 10 μM of dicumerol for 1 hour, 100 nM of MAC220 or 5-10 μM of β-lapachone for 4 hours, and then were challenged by 20 ng/ml of LPS or 1 μM of PMA. Cell culture supernatants were collected after 2 hour incubation. Same volume of DMSO and PBS were used as vehicle control.
A further assay deals with human cancer cell lines. To be noted: single agent, read-out: antineoplastic activity (IC50); cited from earlier work.
The mark [6] stands for this setting: BALF, NQO1 and WT mice given NAC prior to elastase challenge.
Where [7] appears, read: NQO1 deficient mice, oral NAC in water + elastase vs elastase only.
The mark [8] stands for this setting: LPS treated NQO1 deficient mice compared to LPS+NAC NQO1 deficient mice.

`CC(=O)N[C@@H](CS)C(=O)O` [NAC, N-acetyl cysteine]: in assay [1] (setting [6]), the 8-isoprostane levels result is given as “reduction” and the protein carbonyls result is “reduction”. The “Glutathione measurements in the BAL” value in assay [1] (NQO1 deficient mice treated with NAC, elastase model) is recorded as “increased concentrations”. Further, in assay [1] (setting [7]), the lung compliance entry is on record as “partially attenuated” and the pressure-volume measurements entry is “partially attenuated”. For the same molecule, in assay [1] (PPE only group compared to the PPE+NAC group, NQO1 deficient and C57BL/6 mice), the “neutrophils in BALF” value is on record as “significant increase”. Also, in assay [1] (PPE+NAC vs PPE groups), the mean line intercepts entry is “complete abrogation of the elastase effect” and the surface alveolar density entry was “complete abrogation of the elastase effect”. Moreover, in assay [2] (setting [8]), the “8-isoprostane concentrations in the BALF” value is “significant increase” and the “protein carbonyls in the BALF” value was “significant increase”. In addition, the “polymorphonuclear leukocytes, share of BALF cells” value in assay [2] (LPS+NAC treated NQO1 deficient mice (LPS only: 5-9%)) is listed as 1-4%. In addition, the “Glutathione measurements in the BAL” value in assay [2] (NQO1 deficient mice treated with NAC, LPS model) is “increased concentrations”. For the same molecule, in assay [2] (NQO1 deficient mice, LPS + NAC vs LPS), the static compliance entry is reported as “attenuated”.

Take `CC1(C)CCC2=C(O1)c1ccccc1C(=O)C2=O` [β-lapachone, 3,4-dihydro-2,2-dimethyl-2H-naphtho[1,2-b]pyran-5,6-dione]: the “in vitro inhibition of human DNA Topoisomerase II” value in assay [3] is “potent in vitro inhibition”. The “in vitro inhibition of human DNA Topoisomerase I” value in assay [4] is listed as “potent in vitro inhibition”. In addition, the oxidative stress level entry in assay [5] is recorded as “dose response decrease”. The IC50 (in general, the concentration that inhibits the measured activity by half) in the assay with human cancer cell lines was 1 to 10 µM.

Values taken from patent US20140155361A1, “METHOD FOR TREATING LUNG DISEASE” (Duke University, priority 2010, published 2014).
